Experimental data published in US6413982B1, “4-substituted quinoline derivatives” (Neurogen Corporation, priority 1999, dated 2002).

Target: T1, NK-3 receptor (Homo sapiens, UniProt P29371)
T1 construct: expressed in transfected cells; total cellular membranes
T1 sequence (P29371 1-465): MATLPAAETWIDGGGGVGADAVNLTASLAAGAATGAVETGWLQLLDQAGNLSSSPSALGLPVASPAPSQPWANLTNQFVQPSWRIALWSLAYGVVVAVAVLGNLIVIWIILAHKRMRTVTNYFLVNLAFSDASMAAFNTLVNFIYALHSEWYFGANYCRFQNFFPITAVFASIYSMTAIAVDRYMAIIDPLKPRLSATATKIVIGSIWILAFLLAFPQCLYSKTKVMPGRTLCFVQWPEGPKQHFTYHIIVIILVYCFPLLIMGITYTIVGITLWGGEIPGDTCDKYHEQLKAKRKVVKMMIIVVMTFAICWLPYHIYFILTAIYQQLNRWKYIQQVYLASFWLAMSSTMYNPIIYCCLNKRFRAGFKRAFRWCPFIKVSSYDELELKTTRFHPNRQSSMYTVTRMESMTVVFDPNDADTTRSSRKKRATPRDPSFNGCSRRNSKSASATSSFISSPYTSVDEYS
Assay: Assay for NK-3 receptor binding activity
Settings: displacement of 125I-methylPhe7-neurokinin B, membranes of CHO cells expressing cloned human NK-3 receptor, 2 hours at 4° C.
Description: The following assay is a standard assay for NK-3 receptor binding activity. Assays are performed as described in Krause et al (Proc. Natl. Acad. Sci. USA 94: 310-315, 1997). The NK-3 receptor complementary DNA is cloned from human hypothalamic RNA using standard procedures. The receptor cDNA is inserted into the expression vector pM^2 to transfect the mammalian Chinese hamster ovary cell line, and a stably expressing clonal cell line is isolated, characterized and used for the current experiments. Cells are grown in minimal essential medium alpha containing 10% fetal bovine serum and 250 μg/ml G418. Cells are liberated from cell culture plates with No-zyme (PBS base, JRH Biosciences), and harvested by low speed centrifugation. […]
Receptor binding assays contain a total volume of 200 μl containing 50 μg membrane protein, 0.05-0.15 nM 125I-methylPhe7-neurokinin B, drug or blocker in TBS containing 1.0 mg/ml bovine serum albumen, 0.2 mg/ml bacitracin, 20 μg/ml leupeptin and 20 μg/ml chymostatin. […] After filtration of the incubation mixture, filters are rinsed 4 times with ice-cold TBS containing 0.01% sodium dodecyl sulfate and radioactivity is quantitated in a β-plate scintillation counter. […] Data are collected in duplicate determinations, averaged, and the percent inhibition of total specific binding is calculated. […]

IC50 [nM]	Structure (SMILES)
19	CCC1(c2ccccc2)CN=C(c2c(OC)c(-c3ccccc3)nc3ccccc23)N1 (centres unmarked) [Example 1, 5-Ethyl-5-phenyl-2-(3-methoxy-2-phenylquinolin-4-yl)-imidazoline]
0.3	CCC1(c2ccccc2)CN=C(c2c(C)c(-c3ccccc3)nc3ccccc23)N1 (centres unmarked) [Example 2]
